Where “and” joins values, the source holds several entries; their conditions need not be identical. Identical values can stand only once.
What was measured:
[1] = system: human osteoblasts and osteocytes; assay: Apoptosis (TUNEL) in transiliac bone biopsies of patients with glucocorticoid-induced osteoporosis; type: in vivo; settings: two patients
Experimental: Sections were mounted on silane-coated glass slides (Scientific Device Lab, Inc., Des Plains, Ill.), deplasticized and incubated in 10 mM citrate buffer, pH 7.6, in a microwave oven at 98° C. for 5 minutes. Slides were then incubated with 0.5% pepsin for 30 minutes at 37° C. Apoptotic cells were detected by the TUNEL reaction (transferase-mediated biotin-dUTP nick end-labeling) using Klenow terminal deoxynucleotidyl transferase (Oncor, Gaithersburg, Md.) in sections counterstained with 1% methyl green. The TUNEL reaction was noted within cell nuclei and the cells whose nuclei were clearly brown from the peroxidase-labeled anti-digoxigenin antibody instead of the blue-green from the methyl green were interpreted as positive. Plastic-embedded sections of weaned rat mammary tissue were used as a positive control. Negative controls were made by omitting the transferase. Morphological changes characteristic of apoptosis were examined carefully to minimize ambiguity regarding the interpretation of results. With these precautions, TUNEL has been unequivocally associated with apoptosis (19). […] Apoptosis was also assessed in transiliac bone biopsy specimens taken from two patients with glucocorticoid-induced osteoporosis (receiving 15 to 25 mg/d of prednisone for 3 to 6 yr) and from 12 age-, sex- and race-matched controls (13). […]

[2] = system: human cancellous bone; assay: Bone histomorphometry of transiliac bone biopsies of patients; type: in vivo; settings: two patients
Experimental: The distal femora and lumbar vertebrae were fixed in 4° C. Millonig's phosphate-buffered 10% formalin, pH 7.4, embedded undecalcified in methyl methacrylate and stained (7,9,13). The histomorphometric examination was done with a computer and digitizer tablet (OsteoMetrics Inc. Version 3.00, Atlanta, Ga.) interfaced to a Zeiss Axioscope (Carl Zeiss, Inc., Thornwood, N.Y.) with a drawing tube attachment. All cancellous measurements were two-dimensional, confined to the secondary spongiosa and made at ×400 magnification (numerical aperture 0.75). The terminology and units used are those recommended by the Histomorphometry Nomenclature Committee of the American Society for Bone and Mineral Research (14). The trabecular width and osteoid width were measured directly. Trabecular spacing and number were calculated (15). Only TRAPase-positive cells were included in the osteoclast perimeter. The rate of bone formation (μm^2/μm/d) and turnover (%/d) were calculated (7).
Sections were mounted on silane-coated glass slides (Scientific Device Lab, Inc., Des Plains, Ill.), deplasticized and incubated in 10 mM citrate buffer, pH 7.6, in a microwave oven at 98° C. for 5 minutes. Slides were then incubated with 0.5% pepsin for 30 minutes at 37° C. Apoptotic cells were detected by the TUNEL reaction (transferase-mediated biotin-dUTP nick end-labeling) using Klenow terminal deoxynucleotidyl transferase (Oncor, Gaithersburg, Md.) in sections counterstained with 1% methyl green. The TUNEL reaction was noted within cell nuclei and the cells whose nuclei were clearly brown from the peroxidase-labeled anti-digoxigenin antibody instead of the blue-green from the methyl green were interpreted as positive. Plastic-embedded sections of weaned rat mammary tissue were used as a positive control. Negative controls were made by omitting the transferase. Morphological changes characteristic of apoptosis were examined carefully to minimize ambiguity regarding the interpretation of results. With these precautions, TUNEL has been unequivocally associated with apoptosis (19). […] Apoptosis was also assessed in transiliac bone biopsy specimens taken from two patients with glucocorticoid-induced osteoporosis (receiving 15 to 25 mg/d of prednisone for 3 to 6 yr) and from 12 age-, sex- and race-matched controls (13). Two longitudinal sections were examined from each patient and control subject. Osteoblasts were identified as cuboidal cells lining the osteoid-covered trabecular perimeter (7,9,13). Osteocytes were identified inside lacunae in mineralized bone.

Cancellous bone area ([2]; one value each, normal is 22.4±1.2 SEM): 11.1% and 8.8%
Osteoclast perimeter ([2]; normal is 0.9±0.2): 0% and 0.4%
Reversal perimeter ([2]; normal is 6.9±0.7): 13.5% and 15.4%
Osteoblast perimeter ([2]; normal is 7.6±0.4): 2.1% and 2.3%
Trabecular width ([2]; normal is 161±9): 62 μm and 118 μm
Structure (SMILES): C[C@]12C=CC(=O)C=C1CC[C@@H]1[C@@H]2C(=O)C[C@@]2(C)[C@H]1CC[C@]2(O)C(=O)CO [prednisone]
Apoptosis of osteoclasts or cortical osteocytes [1]: not observed
Apoptotic osteoblasts in cancellous bone ([1]; 15 to 25 mg/d for 3 to 6 yr, absent in controls): ~30%

— US6660468B1, “Vitro and in vivo models for screening compounds to prevent glucocorticoid-induced bone destruction” (Board of Trustees of the University of Arkansas, priority 1998, dated 2003)
